Measurements taken from PubChem BioAssay AID2305 (GlaxoSmithKline (GSK), 2010).

Tested on: P. falciparum 3D7 growth, pLDH absorbance
Assay: P. falciparum 3D7 growth inhibition, dose response, strain 3D7 (AID 2305)

| Compound | IC50 |
| --- | --- |
| COc1ccc(CN(C)CCCc2ccc(NC(=O)c3cc4ccccc4[nH]3)cc2)cc1OC | 0.73 µM |
| NC1=NC(CCc2ccccc2)N(c2ccccc2)C(N)=N1 (stereo not given) | 0.08 µM |
| Cc1cc(OCCCn2ccnc2)ccc1-c1csc(NC(N)=NCc2ccccc2)n1 | 0.88 µM |
| CC1CN(Cc2ccc(C#N)cc2)CCN1c1ccc(NC(=O)c2cccs2)cc1 (stereo not given) | 0.81 µM |
| CCCCC(NCC)c1ccc(OCCOc2ccc(C(CCCC)NCC)cc2)cc1 (stereo not given) | 0.93 µM |
| c1cc(CN2CCCCC2)cc(-c2csc(-c3nc4ccccc4[nH]3)c2)c1 | 0.85 µM |
| CC(C)Cc1nc2nc(N)nc(N)c2cc1C(C)C | 0.23 µM |
| Cc1nc(N=C(N)N)nc2cc3c(cc12)CCC3 | 0.92 µM |
| Cc1ccc(Nc2nccc(NCC(O)c3cccc(F)c3)n2)cc1 (stereo not given) | 0.67 µM |
| COc1c(CNCCCCCCNCc2c(OC)c(OC)c3ccccc3c2OC)c(OC)c2ccccc2c1OC | 0.96 µM |
| CC(C)NCc1ccc(OCc2cccc(COc3ccc(CNC(C)C)cc3I)c2)c(I)c1 | 0.09 µM |
| Cc1cc(N(C)C)nc(Nc2ccc(NC(=O)C3CCCCC3)cc2)n1 | 1.11 µM |
| CCC(C)NS(=O)(=O)c1ccc2nc(Nc3ccc(C)c(Cl)c3)n([C@H](C)C(C)(C)C)c2c1 (stereo not given in full) | 0.38 µM |
| Cc1cc(NCC2CCN(CC3CCCCC3)C2)nc(Nc2ccc(Cl)cc2)n1 (stereo not given) | 0.74 µM |
| CCN(CC)CCCN(CCCN(CC)CC)c1cc(C)nc(Nc2ccc3cc(Br)ccc3c2)n1 | 0.57 µM |
| CC(=O)N(Cc1ccccc1-c1cccc(CNCc2ccc3c(c2)OCO3)c1)C1CCN(Cc2ccccc2)CC1 | 1.05 µM |
| CN(C)c1ccc(-c2nc3ccc(N)cc3[nH]2)cc1 | 0.24 µM |
| CCOc1ccc2nc(C)cc(NN=Cc3ccncc3)c2c1 | 0.99 µM |
| CCc1ccc(CN2CCC(CNC(=O)c3cc(-c4cccc(Cl)c4)cs3)C2)cc1 (stereo not given) | 1.11 µM |
| Cc1sc(C)c(C(F)(F)F)c1CNCCCNc1cc(=O)c2ccccc2[nH]1 | 1.1 µM |
| Nc1ccc(Nc2ccnc3ccc(C(F)(F)F)cc23)cc1O | 0.72 µM |
| CN1CCN(CCCN(Cc2ccc(-c3cccc(CNCc4ccc5c(c4)OCO5)c3)cc2)C(=O)Nc2ccccc2)CC1 | 0.18 µM |
| Cc1cc(NC2CCCC2)nc(Nc2ccccc2F)n1 | 0.93 µM |
| CCOC(=O)c1ccc(NC(=O)Nc2ccc(-c3cccc(-c4nc5ccc(F)cc5[nH]4)c3)cc2)cc1 | 0.12 µM |

| Compound | IC50 |
| --- | --- |
| O=C1CCCN1CCCNCc1ccc(-c2ccc(-c3nc4ccc(F)cc4[nH]3)cc2)cc1 | 0.6 µM |
| O=C(Nc1ccc(-c2ccccc2)cc1)Nc1cccc(Cn2ncc(N3CCNCC3)c(Cl)c2=O)c1 | 0.46 µM |
| CN(C)C(=O)c1ccc(CN(Cc2cccc(OC(C)(C)C)c2)Cc2ccc3c(c2)OCCO3)cc1 | 0.57 µM |
| CN(C)CCn1c(N)c(-c2nc3ccccc3s2)c2nc(C#N)c(C#N)nc21 | 1.01 µM |
| COc1ccc(-c2cccc(NC(=O)c3ccc(Cl)cc3)c2)cc1CN1CCCN(C)CC1 | 0.39 µM |
| O=C(NCCNc1ccnc(Nc2ccc(F)cc2)n1)Nc1ccc2c(c1)OCO2 | 0.68 µM |
| COc1ccc(-c2ccc(NC(=O)c3cccc(Cl)c3)cc2)cc1CN1CCC(O)CC1 | 0.71 µM |
| Cc1cccc2[nH]c(-c3cccc(-c4ccc(C(=O)NCc5ccccc5S(C)(=O)=O)cc4)c3)nc12 | 0.75 µM |
| c1cncc(-c2cc(N3CCc4ccccc4C3)nc(-c3ccncc3)n2)c1 | 0.04 µM |
| CCOc1cc(Cc2cnc(N)nc2N)ccc1OC | 1.25 µM |
| O=C(NCCCCN1CCC(c2ccc3c(c2OCC2COCO2)CCCC3)CC1)c1ccc(-c2ccc(C(F)(F)F)cc2)cc1 (stereo not given) | 0.87 µM |
| COc1cc(F)c2nccc([C@@H](O)CN3CCC(NCc4cc5c(cc4F)OCCO5)CC3)c2c1 | 0.68 µM |
| NC(=O)c1ccsc1NC(=O)CNC(c1ccc(F)cc1)c1cccs1 (stereo not given) | 0.95 µM |
| O=C(Cc1cnc[nH]1)Nc1cccc(-c2ccc(-c3nc4ccc(C(F)(F)F)cc4[nH]3)s2)c1 | 0.77 µM |
| CCOc1cc(C=NNc2nc3ccccc3[nH]2)ccc1OCc1ccc([N+](=O)[O-])cc1 | 1 µM |
| Cc1onc(-c2c(Cl)cccc2Cl)c1C(=O)N1CCc2cc3nccc(N4CCN5CCC[C@H]5C4)c3cc21 | 0.77 µM |
| Cc1nc2ccc3ccc(CNc4ccc(C(=O)CC(CCC(=O)O)C(=O)O)cc4)cc3c2c(=O)[nH]1 (stereo not given) | 0.04 µM |
| CCC(=O)N(c1ccccc1)C1CCN(CCCC(NC(=O)c2cc(C(F)(F)F)cc(C(F)(F)F)c2)c2ccc(Cl)c(Cl)c2)CC1 (stereo not given) | 0.8 µM |
| CC(=O)Nc1ccc(CN(C)C2CCN(c3cc(NC(=O)c4cccc(C)c4)ccn3)CC2)cc1 | 0.9 µM |
| CCOc1ccc2nc(C)cc(NN=Cc3cccc(C)n3)c2c1 | 0.75 µM |
| Fc1ccc2c(NN=Cc3ccccc3)ccnc2c1 | 0.74 µM |
| Cc1cccc(CNc2nc(C)cc(N[C@@H](CC(C)C)C(=O)NCc3cccc(F)c3)n2)c1 | 1.18 µM |
| COc1cccc(Nc2nc(Nc3cccc(C#N)c3)cc(-c3ccncc3)n2)c1 | 0.76 µM |
| CN(C)CCOc1ccc(-n2c(-c3nonc3N)nc3cncc(-c4ccc(F)cc4)c32)cc1 | 0.87 µM |

| Compound | IC50 |
| --- | --- |
| Cc1cc(N[C@@H](CC(C)C)C(=O)NC2CCCC2)nc(NCCc2ccc(F)cc2)n1 | 0.79 µM |
| Cc1ccc(O)cc1Nc1ccnc2ccc(-c3cccc(CNCCN(C)C)c3)cc12 | 0.61 µM |
| COc1ccc(-c2cccc(NC(=O)c3cccc(Cl)c3)c2)cc1CN(C)CCN(C)C | 0.81 µM |
| Cn1nccc1C(=O)NCCNCc1ccc(-c2cccc(-c3nc4ccc(F)cc4[nH]3)c2)cc1 | 0.22 µM |
| Cc1ccc(CC(C)NCC(O)c2cccc(Cl)c2)cc1 (stereo not given) | 0.93 µM |
| CC(=O)Nc1cc(C(=O)Nc2cccc(-c3cccc(-c4nc5c(C)cccc5[nH]4)c3)c2)ccc1C | 0.33 µM |
| CC(C)C[C@H](NC(=O)c1cc(-c2ccc(C(C)(C)C)cc2)no1)C(=O)O (tested in a mixture with another compound) | 0.19 µM |
| Cc1cc(C)c2cc(CNCCCNc3nc4ccccc4[nH]3)[nH]c2c1 | 0.77 µM |
| Cc1cccc2[nH]c(-c3ccc(-c4ccc(C(=O)NCCN5CCCC5)cc4)s3)nc12 | 0.9 µM |
| CCn1ncc2c(N3CCCC3=O)cc(C(=O)N[C@@H](Cc3ccccc3)[C@H](O)CNC(C)(C)c3cccc(OC)c3)cc21 | 0.11 µM |
| COc1ccc2nc3cc(Cl)ccc3c(Nc3ccc(O)c(CNC(C)C)c3)c2c1 | 0.14 µM |
| COc1ccc([N+](=O)[O-])cc1N(Cc1ccccc1-c1ccccc1)S(=O)(=O)c1ccc(C(F)(F)F)cc1[N+](=O)[O-] | 1.05 µM |
| CC(Cc1ccc(NC(=O)c2ccc(NCCc3ccccc3)cc2)cc1)NCCc1cccc(Cl)c1 (stereo not given) | 0.85 µM |
| CC(C)CCCC(C)(C)NC[C@@H](O)[C@H](Cc1ccccc1)NC(=O)c1cc(NC(C)C)cc(N2CCCCS2(=O)=O)c1 | 0.21 µM |
| O=C(Nc1ccc(C(F)(F)F)cc1)Nc1ccccc1N1CCNCC1 | 0.5 µM |
| O=C(Nc1cccc(CN2CCCN(CCc3ccccc3)CC2)c1)c1ccc(Cl)c(Cl)c1 | 0.95 µM |
| Nc1cccc(CNCc2ccc(-c3ccc(-c4nc5ccc(C(F)(F)F)cc5[nH]4)s3)cc2)c1 | 0.44 µM |
| COc1ccc(-c2nc3nc4ccccc4cc3[nH]2)c(OCC(O)CNC(C)C)c1 (stereo not given) | 0.69 µM |
| COc1ccc2c(c1)Nc1ccc(Cl)cc1C2N (stereo not given) | 0.3 µM |
| O=C(Nc1cccc(F)c1)NC1CCN(CCCCCNC(=O)[C@@H]2C[C@H]2c2ccc(Cl)c(Cl)c2)CC1 | 0.76 µM |
| Cc1cc(C2CCN(CCCCNC(=O)c3ccc(NC(=O)c4ccc(Cl)cc4)cc3)CC2)c(C)cc1OCc1ccncc1 | 0.5 µM |
| CC(C)(C)c1ccc(CN2CCC(NC(=O)c3ccc(-c4cccc(Cl)c4)s3)CC2)cc1 | 1.07 µM |
